Test results from ChEMBL document CHEMBL3352214, “Studies on indolizines. Evaluation of their biological properties as microtubule-interacting agents and as melanoma targeting compounds” (Eur J Med Chem, 2015).

What was measured:
Tubulin = assay: Inhibition of tubulin (unknown origin) polymerization; type: protein-complex assay, Homo sapiens
Ovis aries = organism: Ovis aries; assay: Inhibition of sheep brain tubulin polymerization at 100 uM by fluorescence assay
[1] = Inhibition of sheep brain tubulin polymerization by fluorescence assay; set-up: species or system Ovis aries
HL-60(TB) [2] = assay: Growth inhibition of human HL-60(TB) cells after 48 hrs by SRB assay; type: functional; conditions: HL-60, 48 h
SR = assay: Growth inhibition of human SR cells after 48 hrs by SRB assay; type: functional
NCI-H522 [3] = assay: Growth inhibition of human NCI-H522 cells after 48 hrs by SRB assay; type: functional; conditions: NCI-H522, 48 h
[4] = Growth inhibition of human COLO205 cells after 48 hrs by SRB assay; type: functional; conditions: COLO 205, 48 h
KM12 = assay: Growth inhibition of human KM12 cells after 48 hrs by SRB assay; type: functional; conditions: KM12, 48 h
HT-29 = assay: Growth inhibition of human HT-29 cells after 48 hrs by SRB assay; type: functional; conditions: HT-29, 48 h
MDA-MB-435 [5] = assay: Growth inhibition of human MDA-MB-435 cells after 48 hrs by SRB assay; type: functional; conditions: MDA-MB-435, 48 h
SK-MEL-5 = assay: Growth inhibition of human SK-MEL-5 cells after 48 hrs by SRB assay; type: functional; conditions: SK-MEL-5, 48 h
[6] = Growth inhibition of human OVCAR3 cells after 48 hrs by SRB assay; type: functional; conditions: OVCAR-3, 48 h
NCI/ADR-RES = assay: Growth inhibition of human NCI/ADR-RES cells after 48 hrs by SRB assay; type: functional
A498 [7] = assay: Growth inhibition of human A498 cells after 48 hrs by SRB assay; type: functional; conditions: A498, 48 h
[8] = Growth inhibition of human PC3 cells after 48 hrs by SRB assay; type: functional; conditions: PC-3, 48 h
SNB-75 [9] = assay: Growth inhibition of human SNB75 cells after 48 hrs by SRB assay; type: functional; conditions: SNB-75, 48 h
MDA-MB-468 = assay: Growth inhibition of human MDA-MB-468 cells after 48 hrs by SRB assay; type: functional; conditions: MDA-MB-468, 48 h
MCF7 [10] = assay: Growth inhibition of human MCF7 cells after 48 hrs by SRB assay; type: functional; conditions: MCF7, 48 h
[11] = Growth inhibition of human MOLT4 cells at 10^-5 M after 48 hrs by SRB assay; type: functional; conditions: MOLT-4, 48 h, read-out: GI
HL-60(TB) [12] = assay: Growth inhibition of human HL-60(TB) cells at 10^-5 M after 48 hrs by SRB assay; type: functional; conditions: HL-60, 48 h, read-out: GI
[13] = Growth inhibition of human HOP92 cells at 10^-5 M after 48 hrs by SRB assay; type: functional; conditions: HOP-92, 48 h, read-out: GI
[14] = Growth inhibition of human EKVX cells at 10^-5 M after 48 hrs by SRB assay; type: functional; conditions: read-out: GI
NCI-H522 [15] = assay: Growth inhibition of human NCI-H522 cells at 10^-5 M after 48 hrs by SRB assay; type: functional; conditions: NCI-H522, 48 h, read-out: GI
[16] = Growth inhibition of human HCT116 cells at 10^-5 M after 48 hrs by SRB assay; type: functional; conditions: HCT-116, 48 h, read-out: GI
MDA-MB-435 [17] = assay: Growth inhibition of human MDA-MB-435 cells at 10^-5 M after 48 hrs by SRB assay; type: functional; conditions: MDA-MB-435, 48 h, read-out: GI
Malme-3M = assay: Growth inhibition of human MALME-3M cells at 10^-5 M after 48 hrs by SRB assay; type: functional; conditions: read-out: GI
CAKI-1 = assay: Growth inhibition of human Caki1 cells at 10^-5 M after 48 hrs by SRB assay; type: functional; conditions: CAKI-1, 48 h, read-out: GI
[18] = Growth inhibition of human PC3 cells at 10^-5 M after 48 hrs by SRB assay; type: functional; conditions: PC-3, 48 h, read-out: GI
[19] = Growth inhibition of human SF295 cells at 10^-5 M after 48 hrs by SRB assay; type: functional; conditions: SF-295, 48 h, read-out: GI
SNB-75 [20] = assay: Growth inhibition of human SNB75 cells at 10^-5 M after 48 hrs by SRB assay; type: functional; conditions: SNB-75, 48 h, read-out: GI
MCF7 [21] = assay: Growth inhibition of human MCF7 cells at 10^-5 M after 48 hrs by SRB assay; type: functional; conditions: MCF7, 48 h, read-out: GI
T47D = assay: Growth inhibition of human T47D cells at 10^-5 M after 48 hrs by SRB assay; type: functional; set-up: Activity: scale not given: the % may be the effect or the level left
NCI-H522 [22] = assay: Cytotoxicity against human NCI-H522 cells assessed as cell growth at 10^-5 M after 48 hrs by SRB assay; type: functional; conditions: NCI-H522, 48 h, read-out: Activity
[23] = Cytotoxicity against human HCT116 cells assessed as cell growth at 10^-5 M after 48 hrs by SRB assay; type: functional; conditions: HCT-116, 48 h, read-out: Activity
MDA-MB-435 [24] = assay: Cytotoxicity against human MDA-MB-435 cells assessed as cell growth at 10^-5 M after 48 hrs by SRB assay; type: functional; conditions: MDA-MB-435, 48 h, read-out: Activity
[25] = Growth inhibition of human HCT15 cells at 10^-5 M after 48 hrs by SRB assay; type: functional; conditions: HCT-15, 48 h, read-out: GI
A498 [26] = assay: Growth inhibition of human A498 cells at 10^-5 M after 48 hrs by SRB assay; type: functional; conditions: A498, 48 h, read-out: GI
MOLT-4 = assay: Cytotoxicity against human MOLT4 cells assessed as cell growth at 10^-5 M after 48 hrs by SRB assay; type: functional; conditions: MOLT-4, 48 h, read-out: Activity

COc1ccc(C(=O)c2cc(OC)c(OC)c(OC)c2)cc1O [PHENSTATIN]
IC50 (Tubulin): 3400 nM
inhibition (Ovis aries): 99%
IC50 [1]: 3430 nM

CCOC(=O)c1cc(C(=O)c2cc(OC)c(OC)c(OC)c2)n2ccc(C)cc12
GI50 (HL-60(TB) [2]): 630 nM
GI50 (SR): 310 nM
GI50 (NCI-H522 [3]): 585 nM
GI50 [4]: 650 nM
GI50 (KM12): 497 nM
GI50 (HT-29): 393 nM
GI50 (MDA-MB-435 [5]): 234 nM
GI50 (SK-MEL-5): 411 nM
GI50 [6]: 343 nM
GI50 (NCI/ADR-RES): 411 nM
GI50 (A498 [7]): 272 nM
GI50 [8]: 976 nM
GI50 (SNB-75 [9]): 324 nM
GI50 (MDA-MB-468): 410 nM
GI50 (MCF7 [10]): 339 nM
inhibition (Ovis aries): 72%
IC50 [1]: 28100 nM
inhibition of growth at 10 µM [11]: 50%
inhibition of growth at 10 µM (HL-60(TB) [12]): 92%
inhibition of growth at 10 µM [13]: 88%
inhibition of growth at 10 µM [14]: 50%
inhibition of growth at 10 µM (NCI-H522 [15]): 100%
inhibition of growth at 10 µM [16]: 100%
inhibition of growth at 10 µM (MDA-MB-435 [17]): 100%
inhibition of growth at 10 µM (Malme-3M): 74%
inhibition of growth at 10 µM (CAKI-1): 66%
inhibition of growth at 10 µM [18]: 79%
inhibition of growth at 10 µM [19]: 85%
inhibition of growth at 10 µM (SNB-75 [20]): 82%
inhibition of growth at 10 µM (MCF7 [21]): 88%
Activity (T47D): 83%
growth at 10 µM (NCI-H522 [22]): -9%
growth at 10 µM [23]: -58%
growth at 10 µM (MDA-MB-435 [24]): -17%

CCOC(=O)c1cc(C(=O)c2ccc(OC)c(OC)c2)n2ccc(OC)cc12
inhibition (Ovis aries): 51%
inhibition of growth at 10 µM [11]: 100%
inhibition of growth at 10 µM [14]: 0%
inhibition of growth at 10 µM (NCI-H522 [15]): 0%
inhibition of growth at 10 µM [16]: 2%
inhibition of growth at 10 µM [25]: 7%
inhibition of growth at 10 µM (MDA-MB-435 [17]): 2%
inhibition of growth at 10 µM (Malme-3M): 12%
inhibition of growth at 10 µM (A498 [26]): 15%
inhibition of growth at 10 µM (CAKI-1): 3%
inhibition of growth at 10 µM [18]: 12%
inhibition of growth at 10 µM [19]: 3%
inhibition of growth at 10 µM (SNB-75 [20]): 0%
inhibition of growth at 10 µM (MCF7 [21]): 8%
inhibition of growth at 10 µM (T47D; Homo sapiens, T47D, 48 h, read-out: GI): 4%
growth at 10 µM (MOLT-4): -53%
